# Measured values published in PubChem BioAssay AID1919002 (Molecular Pharmacology Branch, DTP, NCI, 2023).
# pIC50: −log10 of the molar value. Where “and” joins values, the source holds several entries; their conditions need not be identical. Equal values may be shown once.
# Tested on: 743489-274-T-PDC complex spheroid growth
# Assay: Anticancer human tumor 743489-274-T-PDC patient-derived renal cell carcinoma cell line growth inhibition [AhR]
# Conditions: for viability, T/C: stronger effect = lower value
# Method in brief: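 Complex tumor spheroids co-cultured with HUVEC and human MSC stroma; AhR antagonists tested in combination with standard-of-care and investigational agents. Top concentration at or near clinical Cmax (else 10 microM), half-log dilutions; growth expressed as percent test/control.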
# [1] = curve of first compound, second compound 0.1 µM
# [2] = curve of first compound, second compound 0.316 µM
# [3] = curve of first compound, second compound 1 µM
# [4] = curve of first compound, second compound 3.16 µM
# [5] = curve of first compound, second compound 10 µM
# [6] = second compound 0.1 µM, first compound 0.0316 µM
# [7] = second compound 0.1 µM, first compound 0.1 µM
# [8] = second compound 0.316 µM, first compound 0.0316 µM
# [9] = second compound 0.316 µM, first compound 0.1 µM
# [10] = second compound 1 µM, first compound 0.0316 µM
# [11] = second compound 1 µM, first compound 0.1 µM
# [12] = second compound 3.16 µM, first compound 0.0316 µM
# [13] = second compound 3.16 µM, first compound 0.1 µM
# [14] = second compound 10 µM, first compound 0.0316 µM
# [15] = second compound 10 µM, first compound 0.1 µM
# [16] = second compound 0.1 µM, first compound 0.000949 µM
# [17] = second compound 0.1 µM, first compound 0.003 µM
# [18] = second compound 0.1 µM, first compound 0.00949 µM
# [19] = second compound 0.1 µM, first compound 0.03 µM
# [20] = second compound 0.1 µM, first compound 0.0949 µM
# [21] = second compound 0.1 µM, first compound 0.3 µM
# [22] = second compound 0.316 µM, first compound 0.000949 µM
# [23] = second compound 0.316 µM, first compound 0.003 µM
# [24] = second compound 0.316 µM, first compound 0.00949 µM
# [25] = second compound 0.316 µM, first compound 0.03 µM
# [26] = second compound 0.316 µM, first compound 0.0949 µM
# [27] = second compound 0.316 µM, first compound 0.3 µM
# [28] = second compound 1 µM, first compound 0.000949 µM
# [29] = second compound 1 µM, first compound 0.003 µM
# [30] = second compound 1 µM, first compound 0.00949 µM
# [31] = second compound 1 µM, first compound 0.03 µM
# [32] = second compound 1 µM, first compound 0.0949 µM
# [33] = second compound 1 µM, first compound 0.3 µM
# [34] = second compound 3.16 µM, first compound 0.000949 µM
# [35] = second compound 3.16 µM, first compound 0.003 µM
# [36] = second compound 3.16 µM, first compound 0.00949 µM
# [37] = second compound 3.16 µM, first compound 0.03 µM
# [38] = second compound 3.16 µM, first compound 0.0949 µM
# [39] = second compound 3.16 µM, first compound 0.3 µM
# [40] = second compound 10 µM, first compound 0.000949 µM
# [41] = second compound 10 µM, first compound 0.003 µM
# [42] = second compound 10 µM, first compound 0.00949 µM
# [43] = second compound 10 µM, first compound 0.03 µM
# [44] = second compound 10 µM, first compound 0.0949 µM
# [45] = second compound 10 µM, first compound 0.3 µM
# 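Note: spheroids exposed to agents for 7 days before readout.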
# 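Throughout, for viability, T/C: 100% = DMSO vehicle control wells.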
compound,measurement,setting,value
Cn1ncnc1C1c2n[nH]c(=O)c3cc(F)cc(c23)NC1c1ccc(F)cc1 (stereo unspecified) + Cc1cncc(-c2nc(NCCc3c[nH]c4ccccc34)c3ncn(C(C)C)c3n2)c1,pIC50,[1],< 7.00
same,pIC50,[2],< 7.00
same,pIC50,[3],< 7.00
same,pIC50,[4],< 7.00
same,pIC50,[5],< 7.00
same,"viability, T/C","second compound 0.1 µM, first compound 0.000316 µM",95.5%
same,"viability, T/C","second compound 0.1 µM, first compound 0.001 µM",104%
same,"viability, T/C","second compound 0.1 µM, first compound 0.00316 µM",90.8%
same,"viability, T/C","second compound 0.1 µM, first compound 0.01 µM",87.9%
same,"viability, T/C",[6],89.6%
same,"viability, T/C",[7],98.8%
same,"viability, T/C","second compound 0.316 µM, first compound 0.000316 µM",88.8%
same,"viability, T/C","second compound 0.316 µM, first compound 0.001 µM",91.8%
same,"viability, T/C","second compound 0.316 µM, first compound 0.00316 µM",96.1%
same,"viability, T/C","second compound 0.316 µM, first compound 0.01 µM",96.2%
same,"viability, T/C",[8],93.3%
same,"viability, T/C",[9],95.7%
same,"viability, T/C","second compound 1 µM, first compound 0.000316 µM",103%
same,"viability, T/C","second compound 1 µM, first compound 0.001 µM",96%
same,"viability, T/C","second compound 1 µM, first compound 0.00316 µM",97%
same,"viability, T/C","second compound 1 µM, first compound 0.01 µM",101%
same,"viability, T/C",[10],96.7%
same,"viability, T/C",[11],88.2%
same,"viability, T/C","second compound 3.16 µM, first compound 0.000316 µM",121%
same,"viability, T/C","second compound 3.16 µM, first compound 0.001 µM",102%
same,"viability, T/C","second compound 3.16 µM, first compound 0.00316 µM",99.2%
same,"viability, T/C","second compound 3.16 µM, first compound 0.01 µM",114%
same,"viability, T/C",[12],99.3%
same,"viability, T/C",[13],94.5%
same,"viability, T/C","second compound 10 µM, first compound 0.000316 µM",128%
same,"viability, T/C","second compound 10 µM, first compound 0.001 µM",117%
same,"viability, T/C","second compound 10 µM, first compound 0.00316 µM",139%
same,"viability, T/C","second compound 10 µM, first compound 0.01 µM",121%
same,"viability, T/C",[14],111%
same,"viability, T/C",[15],131%
Nc1ncn(C2CC(O)C(CO)S2)c(=O)n1 (stereo unspecified) + Cc1cncc(-c2nc(NCCc3c[nH]c4ccccc34)c3ncn(C(C)C)c3n2)c1,pIC50,[1],< 6.52
same,pIC50,[2],< 6.52
same,pIC50,[3],< 6.52
same,pIC50,[4],< 6.52
same,pIC50,[5],< 6.52
same,"viability, T/C",[16],107%
same,"viability, T/C",[17],105%
same,"viability, T/C",[18],104%
same,"viability, T/C",[19],95.8%
same,"viability, T/C",[20],96.5%
same,"viability, T/C",[21],93.1%
same,"viability, T/C",[22],96.6%
same,"viability, T/C",[23],99.8%
same,"viability, T/C",[24],104%
same,"viability, T/C",[25],98.3%
same,"viability, T/C",[26],84.7%
same,"viability, T/C",[27],101%
same,"viability, T/C",[28],108%
same,"viability, T/C",[29],100%
same,"viability, T/C",[30],106%
same,"viability, T/C",[31],106%
same,"viability, T/C",[32],98.8%
same,"viability, T/C",[33],103%
same,"viability, T/C",[34],114%
same,"viability, T/C",[35],106%
same,"viability, T/C",[36],119%
same,"viability, T/C",[37],118%
same,"viability, T/C",[38],109%
same,"viability, T/C",[39],96.2%
same,"viability, T/C",[40],138%
same,"viability, T/C",[41],115%
same,"viability, T/C",[42],117%
same,"viability, T/C",[43],124%
same,"viability, T/C",[44],112%
same,"viability, T/C",[45],125%
CC(CO)NC(=O)c1cc(-c2ccc(Cl)cc2)nn(-c2cnn(C)c2)c1=O (stereo unspecified),"viability, T/C",compound 0.316 µM,90% [middle of 21 runs]
same,pIC50,"compound alone, run of 08/08/2022",< 5.00
CC(C)c1c(-c2ccccc2)nc2c(C#N)c[nH]n2c1=O,"viability, T/C",compound 0.0316 µM,110% and 112% and 107%
same,"viability, T/C",compound 0.1 µM,110% and 105% and 109%
same,"viability, T/C",compound 0.316 µM,101% (2×) and 103%
same,"viability, T/C",compound 1 µM,109% and 104% and 112%
same,"viability, T/C",compound 3.16 µM,107% and 106% and 111%
same,"viability, T/C",compound 10 µM,101% and 107% and 102%
same,pIC50,curve of compound,< 5.00
Nc1ncn(C2CC(O)C(CO)S2)c(=O)n1 (stereo unspecified) + CC(CO)NC(=O)c1cc(-c2ccc(Cl)cc2)nn(-c2cnn(C)c2)c1=O,pIC50,[1],< 6.52
same,pIC50,[2],< 6.52
same,pIC50,[3],< 6.52
same,pIC50,[4],< 6.52
same,pIC50,[5],< 6.52
same,"viability, T/C",[16],93.7%
same,"viability, T/C",[17],111%
same,"viability, T/C",[18],102%
same,"viability, T/C",[19],96%
same,"viability, T/C",[20],96%
same,"viability, T/C",[21],114%
same,"viability, T/C",[22],103%
same,"viability, T/C",[23],92.9%
same,"viability, T/C",[24],93%
same,"viability, T/C",[25],88%
same,"viability, T/C",[26],86.9%
same,"viability, T/C",[27],95.1%
same,"viability, T/C",[28],92.4%
same,"viability, T/C",[29],89.3%
same,"viability, T/C",[30],91.7%
same,"viability, T/C",[31],101%
same,"viability, T/C",[32],87.7%
same,"viability, T/C",[33],101%
same,"viability, T/C",[34],103%
same,"viability, T/C",[35],95.7%
same,"viability, T/C",[36],84.4%
same,"viability, T/C",[37],88.3%
same,"viability, T/C",[38],86.8%
same,"viability, T/C",[39],92.9%
same,"viability, T/C",[40],95.5%
same,"viability, T/C",[41],95.1%
same,"viability, T/C",[42],91.2%
same,"viability, T/C",[43],95.1%
same,"viability, T/C",[44],93.4%
same,"viability, T/C",[45],86.9%
Nc1ncn(C2CC(O)C(CO)O2)c(=O)n1 (stereo unspecified),"viability, T/C",compound 0.00316 µM,94.8% and 98.8% and 101%
same,"viability, T/C",compound 0.01 µM,112% and 106% (2×)
same,"viability, T/C",compound 0.0316 µM,102% and 106% and 105%
same,"viability, T/C",compound 0.1 µM,90.8% and 93.7% and 102%
same,"viability, T/C",compound 0.316 µM,100% and 96.7% and 104%
same,"viability, T/C",compound 1 µM,94% and 93.5% (2×)
same,pIC50,curve of compound,< 6.00
COc1ccc([C@@H](O)c2cc(-c3ncnc4cc(N5CCOCC5)ccc34)c(F)cc2Cl)nn1 + Cc1cncc(-c2nc(NCCc3c[nH]c4ccccc34)c3ncn(C(C)C)c3n2)c1,pIC50,[1],5.41
same,pIC50,[2],5.50
same,pIC50,[3],5.55
same,pIC50,[4],5.34
same,pIC50,[5],< 5.00
same,"viability, T/C",[6],95.3%
same,"viability, T/C",[7],98.9%
same,"viability, T/C","second compound 0.1 µM, first compound 0.316 µM",90.3%
same,"viability, T/C","second compound 0.1 µM, first compound 1 µM",98.1%
same,"viability, T/C","second compound 0.1 µM, first compound 3.16 µM",52.9%
same,"viability, T/C","second compound 0.1 µM, first compound 10 µM",36.1%
same,"viability, T/C",[8],94.2%
same,"viability, T/C",[9],94.6%
same,"viability, T/C","second compound 0.316 µM, first compound 0.316 µM",88.4%
same,"viability, T/C","second compound 0.316 µM, first compound 1 µM",82.8%
same,"viability, T/C","second compound 0.316 µM, first compound 3.16 µM",49.4%
same,"viability, T/C","second compound 0.316 µM, first compound 10 µM",29.4%
same,"viability, T/C",[10],99.5%
same,"viability, T/C",[11],95%
same,"viability, T/C","second compound 1 µM, first compound 0.316 µM",93.2%
same,"viability, T/C","second compound 1 µM, first compound 1 µM",84.7%
same,"viability, T/C","second compound 1 µM, first compound 3.16 µM",46%
same,"viability, T/C","second compound 1 µM, first compound 10 µM",35.5%
same,"viability, T/C",[12],112%
same,"viability, T/C",[13],118%
same,"viability, T/C","second compound 3.16 µM, first compound 0.316 µM",102%
same,"viability, T/C","second compound 3.16 µM, first compound 1 µM",87.5%
same,"viability, T/C","second compound 3.16 µM, first compound 3.16 µM",53.8%
same,"viability, T/C","second compound 3.16 µM, first compound 10 µM",39.4%
same,"viability, T/C",[14],114%
same,"viability, T/C",[15],119%
same,"viability, T/C","second compound 10 µM, first compound 0.316 µM",102%
same,"viability, T/C","second compound 10 µM, first compound 1 µM",99.3%
same,"viability, T/C","second compound 10 µM, first compound 3.16 µM",65.5%
same,"viability, T/C","second compound 10 µM, first compound 10 µM",59.5%
